This note sets out measurements from US8486994B2, “Prodrugs of substituted 1,3-dioxanes and their uses” (Evolva SA, priority 2007, dated 2013).

Like-named read-outs stand apart in the source and are kept apart here.

The target of one series is T1, Thromboxane synthase (Homo sapiens, UniProt P24557).
T1 sequence (P24557 1-533): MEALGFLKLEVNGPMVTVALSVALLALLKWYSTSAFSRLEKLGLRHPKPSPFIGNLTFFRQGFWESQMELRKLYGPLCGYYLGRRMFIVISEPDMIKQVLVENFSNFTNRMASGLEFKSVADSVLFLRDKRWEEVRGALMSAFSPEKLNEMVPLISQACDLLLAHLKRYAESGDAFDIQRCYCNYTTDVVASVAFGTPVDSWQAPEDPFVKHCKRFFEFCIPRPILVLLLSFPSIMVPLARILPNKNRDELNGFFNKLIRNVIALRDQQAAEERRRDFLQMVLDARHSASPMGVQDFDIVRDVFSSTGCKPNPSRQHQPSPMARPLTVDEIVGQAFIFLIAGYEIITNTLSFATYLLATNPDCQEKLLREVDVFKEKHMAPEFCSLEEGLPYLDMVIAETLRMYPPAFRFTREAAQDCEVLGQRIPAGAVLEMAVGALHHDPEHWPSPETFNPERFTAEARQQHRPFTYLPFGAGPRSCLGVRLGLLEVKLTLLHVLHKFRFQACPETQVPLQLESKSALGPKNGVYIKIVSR
In words: Human Platelet Thromboxane Synthase Assay. The format is biochemical. How it is done:
Using these experimental conditions Substrate: 10 μM PGH2, Vehicle: 1% DMSO
Pre-incubation time, temp: 15 min at 25° C., Incubation time, temp: 3 min at 25° C.
1. Imidazole derivatives. J Med Chem. 24(10):1139-48.
(§1) The data were transformed to semi-log and then analysed using non-linear regression to a four-parameter dose-response curve Y=Bottom+(Top−Bottom)/(1+10^((Log EC50−X)*HillSlope)) using the log(agonist) vs. response—Variable slope function of GraphPad Prism software (http://graphpad.com/help/prism5/prism5help.html?usingnonlinear_regression_step_by_s.ht m).

Series [1] concerns the target T2, Thromboxane receptor (TP) (Homo sapiens, UniProt P21731).
T2 construct: expressed in transfected cells; host or cells: HEK-293
T2 sequence (P21731 1-343): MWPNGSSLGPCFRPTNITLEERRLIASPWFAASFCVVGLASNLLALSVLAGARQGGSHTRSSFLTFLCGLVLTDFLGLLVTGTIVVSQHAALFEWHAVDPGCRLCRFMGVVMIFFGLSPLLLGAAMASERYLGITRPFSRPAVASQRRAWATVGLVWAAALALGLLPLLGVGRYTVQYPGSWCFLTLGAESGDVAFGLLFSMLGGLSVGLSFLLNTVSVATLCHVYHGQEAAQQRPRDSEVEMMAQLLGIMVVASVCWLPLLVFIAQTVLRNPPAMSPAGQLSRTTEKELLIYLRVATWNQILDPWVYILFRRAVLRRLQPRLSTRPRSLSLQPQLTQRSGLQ
The series is described as follows: TP Receptor Radioligand Binding ([3H] SQ-29548). Particulars: Human recombinant HEK-293 cells. How it is done: Using these experimental conditions Human recombinant HEK-293 cells, Ligand: 5 nM [^3H] […] J Pharmacol Exp Ther. 245(3):786-92792, and Saussy D L Jr, Mais D E, Burch R M and Halushka P V (1986) Identification of a putative thromboxane A2/prostaglandin H2 receptor in human platelet membranes. J Biol Chem. 261(7):3025-9.
as §1

Series [2] is described as follows: Pharmacokinetics (plasma exposure) after i.v. or p.o. dosing, non-compartmental analysis. Type of series: in vivo, male Wistar rats. Particulars: rat; for half-life: read-out: Terminal Half-life elimination, t½z. Here is the method:
Animals were fasted overnight before dosing p.o. (gavage or capsule) or by bolus intravenous application. Blood samples (approx. 0.15 ml) were taken at different time points into heparinized tubes by automated blood sampling. Plasma was prepared and stored frozen until bioanalysis.
• to an aliquot of 10 μL plasma 30 μL ACN/EtOH (50/50, v/v) are added • vortex • 20 min 14000 rpm approx. 8° C. • Supernatant transfer in HPLC vial Liquid Chromatography
The samples were analyzed by mass spectroscopy using ESI (negative ion mode) as the ionization mode. Selected Reaction Monitoring:
The quantitatively measured plasma concentration-time data were subjected to non-compartmental analysis (NCA) using the PCModfit program (version 3.00) for Windows® running with Excel 2003 (http://home2.btconnect.com/Gamms/PCModfit/; Allen, G. D. ‘Modfit: a pharmacokinetics computer program’ Biopharm. and Drug Disp., Vol. 11, 477-498, 1990). The points selected in each profile for half-life estimation using numerical analysis, where possible, corresponded to the final linear phase as visually assessed from ln(concentration) vs. time plots. The terminal elimination rate constant (λz) for each profile was numerically estimated using iteratively re-weighted non-linear least squares analysis with a weighting factor of 1/Ĉ^2. The area under the concentration-time curve to the last actual time point (AUC0-t) and infinity (AUC0-∞) for each data set were estimated using a linear (ascending) trapezoidal method. The extrapolated area to infinity (AUC0-∞) was estimated, where possible, using AUC0-t and the predicted value (Ĉn) at the last time point for each profile.
[formula] [formula] The Ci values correspond to the actual concentrations of drug at time ti for n data points. The C0 value was extrapolated using the first 4 time points.

Series [3] has as its system arterial thrombosis in a mouse model. The series is described as follows: FeCl3 arterial thrombosis model (femoral artery, laser Doppler blood flow). The format is in vivo, mice. How it is done:
• Vehicle (DMSO/PEG 400, 5/95) • Dose of 1, 3, 10, 30, 100 and 300 mg/kg of Prodrug 3 in vehicle • Saline • Aspirin (dose of 100 mg and 600 mg/kg in vehicle) • Aspirin (Aspégic from Sanofi Synthelabo; dissolved in Saline) • Clopidogrel (Plavix from Sanofi Pharma; dissolved in H2O)
The solutions are diluted 3.3-fold in saline and 100 μl/25 g is injected. Thus, the above-mentioned doses of 100 and 300 mg/kg of compound correspond to final doses of 30 and 100 mg/kg.
Solutions are injected (100 μl/25 g body weight) i.v. in the tail vein over 2 min to obtain doses of each compound of 30 mg/kg and 100 mg/kg. Aspirin is given the same way at a dose of 200 mg/kg. Clopidogrel is administered by oral gavage at a dose of 20 mg/kg at 6-7 hours prior to the experiment. The animals assigned to each group are matched for body weight. Mice are typically 8-10 weeks old males and are in a 100% Swiss genetic background.
The flow in each image is expressed as a percentage of that at the contralateral side, and data are averaged for all 120 images to determine total flow. The same analysis is performed for 10 min intervals (which gives essentially the same information as the area under the curve). […] Flow before treatment is recorded as 100%, and that in occluded arteries as 0%. At the end of the experiment, blood is collected on 0.01M citrate buffer by heart puncture for determination of blood cell counts. Plasma is prepared by centrifugation and stored at −20° C. for determination of drug levels.
Statistical analysis for differences between two groups is performed by non-parametric Student t-test. Occlusion times >30 min were considered equal to 30 min for statistical analysis. Significance is set at p<0.05.

Setting [4] is: p.o., 10 mg/kg, solid in capsules.
Where [5] appears, read: i.v., 3.53 mg/kg, DMSO/PEG400 (5%/95%).
Setting [6] is: i.v., 3.56 mg/kg, DMSO/PEG400/PBS 1X (5%/30%/65%).

The term IC50 denotes the concentration at which inhibition is half-maximal. Broadly, the inhibition is how much of the control response was suppressed. A lower inhibition goes with a response near the control. In general, Ki refers to a dissociation constant, usually derived from enzyme kinetics or from competition with a known ligand. The molecule `COc1ccccc1[C@H]1O[C@@H](c2ccccc2Cl)OC[C@H]1C/C=C\CCC(=O)O` [Compound 5, (Z)-6-((2S,4S,5R)-2-(2-chlorophenyl)-4-(2-methoxyphenyl)-1,3-dioxan-5-yl)hex-4-enoic acid] displayed an IC50 against Thromboxane synthase of 20400 nM. Also, the inhibition at 30 µM against Thromboxane synthase (at 30 μM) amounted to 62%. In series [1], the IC50 worked out at 23.4 nM and the Ki was found to be 15.3 nM.
What is called Tmax is the time from dosing to the highest level. In the case of `O=C(O)CC/C=C\C[C@@H]1CO[C@H](c2ccccc2Cl)O[C@@H]1c1ccccc1O` [drawing 24], in series [2] (setting [4]), the “Cmax (ng/ml)/Dose (mg/kg)” value is recorded as 115 ± 123 (ng/ml)/Dose (mg/kg); the “Lin-AUC (0-∞) (ng•min/ml)/Dose (mg/kg)” value was 17352 ± 14479 (ng•min/ml)/Dose (mg/kg); the T-Last lay in the range of 8 to 12 h; the “Terminal Half-life elimination, t½z” value was found to be 2.22 ± 0.75 h. Further, the time to peak (Tmax) in series [2] (setting [4]) worked out at 3 ± 2.12 h.
For the molecule `CC(=O)Oc1ccccc1C(=O)O` [Aspirin], in series [3] (200 mg/kg i.v.), the occlusion time entry is listed as “no effect on the occlusion time”. Moreover, the total blood flow result in series [3] (200 mg/kg i.v., versus vehicle) is “no significant effect on the total blood flow”.
What is called half-life is how long it takes for the measured level to halve. Turning to `COc1ccccc1[C@H]1OC(c2ccccc2Cl)OC[C@H]1C/C=C\CCC(=O)O` (stereo partly shown) [drawing 19], the half-life in series [2] (male, Wistar, plasma, iv, 3.53 mg/kg, i.v., 3.53 mg/kg, DMSO/PEG400 (5%/95%)) came to 3.03 ± 0.917 h. In series [2] (male, Wistar, plasma, iv, 3.53 mg/kg, i.v., 3.53 mg/kg, DMSO/PEG400 (5%/95%), read-out: Tmax (converted)), the Tmax was 0.0833 h. In series [2] (setting [5]), the “Cmax (ng/ml)/Dose (mg/kg)” value is listed as 554 ± 154 (ng/ml)/Dose (mg/kg), the “Lin-AUC (0-∞) (ng•min/ml)/Dose (mg/kg)” value is on record as 17416 ± 1734 (ng•min/ml)/Dose (mg/kg) and the T-Last was 8 to 12 h.
Turning to `O=C(O)CC/C=C\C[C@@H]1CO[C@H](c2ccccc2Cl)O[C@@H]1c1ccccc1O` [drawing 20], the half-life in series [2] (male, Wistar, plasma, po, 10 mg/kg, p.o., 10 mg/kg, solid in capsules) was determined as 1.58 ± 0.567 h. In addition, the time to peak (Tmax) in series [2] (male, Wistar, plasma, po, 10 mg/kg, p.o., 10 mg/kg, solid in capsules, read-out: Tmax (converted)) is 1.5 h. In series [2] (setting [4]), the “Cmax (ng/ml)/Dose (mg/kg)” value is 236 ± 63 (ng/ml)/Dose (mg/kg), the “Lin-AUC (0-∞) (ng•min/ml)/Dose (mg/kg)” value is given as 27195 ± 4453 (ng•min/ml)/Dose (mg/kg) and the T-Last was in the range of 6 to 12 h.
With `COC(=O)[C@H](c1ccccc1Cl)N1CCc2sccc2C1` [Clopidogrel], the occlusion time result in series [3] (20 mg/kg oral gavage 6-7 hours prior to the experiment) is on record as “totally prevents occlusion within 30 min in 6/7 experiments”. In addition, the total blood flow result in series [3] (20 mg/kg oral gavage 6-7 hours prior, versus vehicle) is listed as “significantly improved total blood flow”.
For `O=C(O)CC/C=C\C[C@@H]1CO[C@H](c2ccccc2Cl)O[C@@H]1c1ccccc1O` [drawing 18], the half-life in series [2] (male, Wistar, plasma, iv, 3.56 mg/kg, i.v., 3.56 mg/kg, DMSO/PEG400/PBS 1X (5%/30%/65%)) is 0.767 ± 0.433 h. Also, in series [2] (male, Wistar, plasma, iv, 3.56 mg/kg, i.v., 3.56 mg/kg, DMSO/PEG400/PBS 1X (5%/30%/65%), read-out: Tmax (converted)), the Tmax was 0.0833 h. In series [2] (setting [6]), the “Cmax (ng/ml)/Dose (mg/kg)” value was 614 ± 68 (ng/ml)/Dose (mg/kg), the “Lin-AUC (0-∞) (ng•min/ml)/Dose (mg/kg)” value is on record as 12050 ± 1835 (ng•min/ml)/Dose (mg/kg) and the T-Last lay within 3 to 6 h.
As to `COc1ccccc1[C@H]1OC(c2ccccc2Cl)OC[C@H]1C/C=C\CCC(=O)O` (stereo partly shown) [Prodrug 3], the total blood flow entry in series [3] (10 mg/kg in vehicle, i.v.) was “no effect on total blood flow”; in series [3] (30 mg/kg in vehicle, i.v.), “slightly improved total blood flow as compared to aspirin (p=0.055), but not as compared to vehicle”. Moreover, the occlusion time result in series [3] (30 mg/kg in vehicle (DMSO/PEG 400), i.v.) is “prolongs the occlusion time as compared to aspirin (p=0.024) and the parent compound, but has no effect as compared to vehicle”.
Regarding `COc1ccccc1[C@@H]1O[C@H](c2ccccc2Cl)OC[C@@H]1C/C=C\CCC(=O)O` [Compound 4, (Z)-6-((2R,4R,5S)-2-(2-chlorophenyl)-4-(2-methoxyphenyl)-1,3-dioxan-5-yl)hex-4-enoic acid], the half-inhibitory concentration (IC50) on Thromboxane synthase worked out at 17500 nM; in series [1] it was 1870 nM. Besides, the Ki in series [1] turned out to be 1220 nM.
